Results reported in patent US20240327412A1, “FACTOR XIIA INHIBITORS” (KALVISTA PHARMACEUTICALS LIMITED, priority 2021, published 2024).

The molecules below were run against T1, Human Factor XIIa (Homo sapiens, UniProt P00748) (assay: Determination of FXIIa inhibition (fluorogenic substrate H-DPro-Phe-Arg-AFC, IC50 assay)). Settings: substrate at Km concentration, 25° C.; category scale; read-out: Human FXII IC50 (nm).
T1 construct: Proteolytic cleavage of FXII to heavy and light chains of FXIIa dramatically increases catalytic activity; purchased Enzyme Research Laboratories
T1 sequence (P00748 373-615 limits assumed): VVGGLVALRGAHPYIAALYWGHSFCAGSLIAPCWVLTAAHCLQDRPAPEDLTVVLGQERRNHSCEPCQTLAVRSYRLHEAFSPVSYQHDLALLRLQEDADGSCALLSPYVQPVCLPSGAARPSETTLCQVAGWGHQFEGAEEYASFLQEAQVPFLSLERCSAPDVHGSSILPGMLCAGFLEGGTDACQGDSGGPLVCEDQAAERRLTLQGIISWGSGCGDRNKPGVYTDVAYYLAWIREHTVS
T1 sequence (P00748 20-372 partner limits assumed): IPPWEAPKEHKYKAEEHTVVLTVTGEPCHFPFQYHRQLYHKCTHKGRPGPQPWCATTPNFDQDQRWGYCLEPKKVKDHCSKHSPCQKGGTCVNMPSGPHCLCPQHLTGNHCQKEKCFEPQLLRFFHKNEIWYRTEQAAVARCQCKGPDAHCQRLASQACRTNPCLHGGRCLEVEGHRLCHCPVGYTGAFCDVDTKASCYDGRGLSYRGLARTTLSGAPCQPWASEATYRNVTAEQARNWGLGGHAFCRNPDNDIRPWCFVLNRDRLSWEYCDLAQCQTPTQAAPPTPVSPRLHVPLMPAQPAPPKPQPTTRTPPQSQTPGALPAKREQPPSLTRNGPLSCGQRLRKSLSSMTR
Type: biochemical
Description: In vitro inhibition of Factor XIIa was determined using an IC50 assay based on standard literature methods (see e.g Baeriswyl et al., ACS Chem. Biol., 2015, 10 (8) 1861; Bouckaert et al., European Journal of Medicinal Chemistry 110 (2016) 181). Human Factor XIIa (Enzyme Research Laboratories) was incubated at 25° C. with the fluorogenic substrate H-DPro-Phe-Arg-AFC (Peptide Protein Science) and various concentrations of the test compound. Protease activity was measured by monitoring the accumulation of liberated fluorescence from the substrate over 5 min at 25° C. The linear rate of fluorescence increase per minute was expressed as percentage (%) activity. The Km for the cleavage of the substrate by FXIIa was determined by standard transformation of the Michaelis-Menten equation. The compound inhibitor assays were performed at substrate Km concentration. IC50 values were calculated as the concentration of inhibitor giving 50% inhibition (IC50) of the uninhibited enzyme activity (100%).

| IC50 | SMILES |
| --- | --- |
| 300 to 1000 nM | Nc1nccc2c(NCC34CC(COc5ccn6c(C(F)(F)F)nnc6c5)(CCO3)C4)cccc12 [Example 10961, N5-((5-(((3-(trifluoromethyl)-[1,2,4]triazolo[4,3-a]pyridin-7-yl)oxy)methyl)-2-oxabicyclo[3.1.1]heptan-1-yl)methyl)isoquinoline-1,5-diamine] |
| 1000 to 3000 nM | Cc1cn(C)c(=O)nc1OCC12CCOC(CNc3cccc4c(N)nccc34)(C1)C2 [Example 10962, 4-((1-(((1-aminoisoquinolin-5-yl)amino)methyl)-2-oxabicyclo[3.1.1]heptan-5-yl)methoxy)-1,5-dimethylpyrimidin-2(1H)-one] |
| 3000 to 10000 nM | Nc1nccc2c(NCC34CC(COc5ccnnc5)(CCO3)C4)cccc12 [Example 10963, N5-((5-((pyridazin-4-yloxy)methyl)-2-oxabicyclo[3.1.1]heptan-1-yl)methyl)isoquinoline-1,5-diamine] |
| 10 to 100 nM | CCn1c(C)cc(OCC23CCOC(CNc4cccc5c(N)nccc45)(C2)C3)cc1=O [Example 10964, 4-((1-(((1-aminoisoquinolin-5-yl)amino)methyl)-2-oxabicyclo[3.1.1]heptan-5-yl)methoxy)-1-ethyl-6-methylpyridin-2(1H)-one] |
| 3000 to 10000 nM | Nc1nccc2c(NCC34CC(COc5cccnc5)(CCO3)C4)cccc12 [Example 10968, N5-((5-((pyridin-3-yloxy)methyl)-2-oxabicyclo[3.1.1]heptan-1-yl)methyl)isoquinoline-1,5-diamine] |
| 1000 to 3000 nM | Nc1nccc2c(NCC34CC(COc5ccn6nncc6c5)(CCO3)C4)cccc12 [Example 10969, N5-((5-(([1,2,3]triazolo[1,5-a]pyridin-5-yloxy)methyl)-2-oxabicyclo[3.1.1]heptan-1-yl)methyl)isoquinoline-1,5-diamine] |
| 300 to 1000 nM | Cc1cc(OCC23CCOC(CNc4cccc5c(N)nccc45)(C2)C3)ncn1 [Example 10971, N5-((5-(((6-methylpyrimidin-4-yl)oxy)methyl)-2-oxabicyclo[3.1.1]heptan-1-yl)methyl)isoquinoline-1,5-diamine] |
| 10 to 100 nM | Nc1nccc2c(NCC34CC(COc5cc6n(c(=O)c5)CCC6)(CCO3)C4)cccc12 [Example 10972, 7-((1-(((1-aminoisoquinolin-5-yl)amino)methyl)-2-oxabicyclo[3.1.1]heptan-5-yl)methoxy)-2,3-dihydroindolizin-5(1H)-one] |
| 1000 to 3000 nM | Nc1nccc2c(NCC34CC(COc5ccc6ncoc6c5)(CCO3)C4)cccc12 [Example 10973, N5-((5-((benzo[d]oxazol-6-yloxy)methyl)-2-oxabicyclo[3.1.1]heptan-1-yl)methyl)isoquinoline-1,5-diamine] |
| 3000 to 10000 nM | Cc1nccc(OCC23CCOC(CNc4cccc5c(N)nccc45)(C2)C3)n1 [Example 10974, N5-((5-(((2-methylpyrimidin-4-yl)oxy)methyl)-2-oxabicyclo[3.1.1]heptan-1-yl)methyl)isoquinoline-1,5-diamine] |
| 300 to 1000 nM | Nc1nccc2c(NCC34CC(COc5ccn(C(F)F)c(=O)c5)(CCO3)C4)cccc12 [Example 10975, 4-((1-(((1-aminoisoquinolin-5-yl)amino)methyl)-2-oxabicyclo[3.1.1]heptan-5-yl)methoxy)-1-(difluoromethyl)pyridin-2(1H)-one] |
| 10000 to 40000 nM | Nc1nccc2c(NCC34CC(COc5cnccn5)(CCO3)C4)cccc12 [Example 10976, N5-((5-((pyrazin-2-yloxy)methyl)-2-oxabicyclo[3.1.1]heptan-1-yl)methyl)isoquinoline-1,5-diamine] |
| 300 to 1000 nM | Cn1ccc(OCC23CNC(CNc4ccc5c(N)nccc5c4)(C2)C3)cc1=O [Example 12011, 4-((1-(((1-aminoisoquinolin-6-yl)amino)methyl)-2-azabicyclo[2.1.1]hexan-4-yl)methoxy)-1-methylpyridin-2(1H)-one] |
| 100 to 300 nM | CN1Cc2ccc(OCC34CN(C(=O)OCc5ccccc5)C(CNc5cccc6c(N)nccc56)(C3)C4)cc2C1=O [Example 12012, benzyl 1-(((1-aminoisoquinolin-5-yl)amino)methyl)-4-(((2-methyl-3-oxoisoindolin-5-yl)oxy)methyl)-2-azabicyclo[2.1.1]hexane-2-carboxylate] |
| 300 to 1000 nM | COC(=O)N1CC2(COc3ccn(C)c(=O)c3)CC1(CNc1ccc3c(N)nccc3c1)C2 [Example 12013, methyl 1-(((1-aminoisoquinolin-6-yl)amino)methyl)-4-(((1-methyl-2-oxo-1,2-dihydropyridin-4-yl)oxy)methyl)-2-azabicyclo[2.1.1]hexane-2-carboxylate] |
| 10 to 100 nM | Cn1ccc(OCC23CN(S(=O)(=O)CCc4ccccc4)C(CNc4cccc5c(N)nccc45)(C2)C3)cc1=O [Example 12014, 4-[[1-[[(1-aminoisoquinolin-5-yl)amino]methyl]-2-(2-phenylethylsulfonyl)-2-azabicyclo[2.1.1]hexan-4-yl]methoxy]-1-methylpyridin-2-one] |
| 10 to 100 nM | Cn1ccc(OCC23CN(C(=O)Oc4ccccc4Cl)C(CNc4cccc5c(N)nccc45)(C2)C3)cc1=O [Example 12015, 2-chlorophenyl 1-(((1-aminoisoquinolin-5-yl)amino)methyl)-4-(((1-methyl-2-oxo-1,2-dihydropyridin-4-yl)oxy)methyl)-2-azabicyclo[2.1.1]hexane-2-carboxylate] |
| 10 to 100 nM | CN1Cc2cc(OCC34CN(C(=O)OCc5ccccc5)C(CNc5cccc6c(N)nccc56)(C3)C4)ccc2C1=O [Example 12018, benzyl 1-(((1-aminoisoquinolin-5-yl)amino)methyl)-4-(((2-methyl-1-oxoisoindolin-5-yl)oxy)methyl)-2-azabicyclo[2.1.1]hexane-2-carboxylate] |
| 100 to 300 nM | Cn1ccc(OCC23CN(C(=O)OCc4ccc(F)c(F)c4)C(CNc4cccc5c(N)nccc45)(C2)C3)cc1=O [Example 12020, 3,4-difluorobenzyl 1-(((1-aminoisoquinolin-5-yl)amino)methyl)-4-(((1-methyl-2-oxo-1,2-dihydropyridin-4-yl)oxy)methyl)-2-azabicyclo[2.1.1]hexane-2-carboxylate] |
| 10 to 100 nM | Cn1ccc(OCC23CN(C(=O)OCc4ccccn4)C(CNc4cccc5c(N)nccc45)(C2)C3)cc1=O [Example 12021, pyridin-2-ylmethyl 1-(((1-aminoisoquinolin-5-yl)amino)methyl)-4-(((1-methyl-2-oxo-1,2-dihydropyridin-4-yl)oxy)methyl)-2-azabicyclo[2.1.1]hexane-2-carboxylate] |
| 10 to 100 nM | Cn1ccc(OCC23CN(C(=O)OCc4cccnc4)C(CNc4cccc5c(N)nccc45)(C2)C3)cc1=O [Example 12022, pyridin-3-ylmethyl 1-(((1-aminoisoquinolin-5-yl)amino)methyl)-4-(((1-methyl-2-oxo-1,2-dihydropyridin-4-yl)oxy)methyl)-2-azabicyclo[2.1.1]hexane-2-carboxylate] |
| 10 to 100 nM | Cn1ccc(OCC23CN(C(=O)OCc4ccccc4Cl)C(CNc4cccc5c(N)nccc45)(C2)C3)cc1=O [Example 12023, 2-chlorobenzyl 1-(((1-aminoisoquinolin-5-yl)amino)methyl)-4-(((1-methyl-2-oxo-1,2-dihydropyridin-4-yl)oxy)methyl)-2-azabicyclo[2.1.1]hexane-2-carboxylate] |
| 100 to 300 nM | Cn1ccc(OCC23CN(C(=O)OCc4ccc5ccccc5c4)C(CNc4cccc5c(N)nccc45)(C2)C3)cc1=O [Example 12024, naphthalen-2-ylmethyl 1-(((1-aminoisoquinolin-5-yl)amino)methyl)-4-(((1-methyl-2-oxo-1,2-dihydropyridin-4-yl)oxy)methyl)-2-azabicyclo[2.1.1]hexane-2-carboxylate] |
| 1000 to 3000 nM | Cn1ccc(OCC23CN(C(=O)OCc4ccccc4)C(CNc4ccnc5[nH]c(Cl)cc45)(C2)C3)cc1=O [Example 12025, benzyl 1-(((2-chloro-1H-pyrrolo[2,3-b]pyridin-4-yl)amino)methyl)-4-(((1-methyl-2-oxo-1,2-dihydropyridin-4-yl)oxy)methyl)-2-azabicyclo[2.1.1]hexane-2-carboxylate] |
| 100 to 300 nM | Cn1cc(COC(=O)N2CC3(COc4ccn(C)c(=O)c4)CC2(CNc2cccc4c(N)nccc24)C3)cn1 [Example 12026, (1-methyl-1H-pyrazol-4-yl)methyl 1-(((1-aminoisoquinolin-5-yl)amino)methyl)-4-(((1-methyl-2-oxo-1,2-dihydropyridin-4-yl)oxy)methyl)-2-azabicyclo[2.1.1]hexane-2-carboxylate] |
